# Patent US12409181B2, “Treatment for aortic aneurysms” (THE REGENTS OF THE UNIVERSITY OF CALIFORNIA, priority 2019, dated 2025)
# Entries after “also recorded” stand apart in the source; their conditions may differ.
# Columns and labels:
# aortic rings = test: Arterial ring isometric tension measurements; design: species or system mice
# Procedure: Arterial Ring Isometric Tension Measurements. Isometric tension in aortas was measured as previously described,^64 with minor modifications. Thoracic aortas were dissected in Krebs-Henseleit solution, cleaned of any adherent connective tissue, and cut into 1.5-2 mm segments. Rings with intact endothelium were mounted in a wire myograph over 40 μm wires, set at a resting tension of 0.5 g, and allowed to equilibrate at 37° C. for 45 min with intermittent washes every 15 min. After equilibration, aortas were treated with 40 mM K^+-solution. For vascular relaxation by acetylcholine (Sigma) or 8-(4-chlorophenylthio)cGMP (8-CPT-cGMP, BioLog), each aortic ring was pre-contracted to generate ˜0.15 g contraction by treatment with prostaglandin-F2α (PGF2α 2-8 μM, Thermo-Fisher). The degree of relaxation was calculated as a percent of PGF2α-induced contraction.
# human aortic SMCs [1] = test: DNA oxidation by 8-OH-deoxyguanosine immunofluorescence staining in SMCs; type: cell-based; details: human aortic SMCs expressing PKG1^RQ
# Procedure: (§1) SMC Culture and Adenovirus Infection. Murine aortic SMCs were isolated from the aortas of 8-12 week old wild type and PKG1^RQ/+ mice and were cultured in Smooth Muscle Basal Media (SmBM) containing 20% FBS, pyruvate, HEPES, L-glutamine, penicillin/streptomycin and growth factors (SmBM Bullet kit; CC-4149 from Lonza), as previously described.^69 Two independent cell isolates from wild type and PKG1^RQ mice were used at passage one. Human primary aortic SMCs were purchased from Lifeline Cell Technology (Frederick, MD, FC-0015) and cultured in VascuLife Basal Medium supplemented with recombinant epidermal growth factor, insulin, and fibroblast growth factor-b, ascorbic acid, L-glutamine, 20% FBS, gentamycin, and amphotericin (Vasculife SMC LifeFactors kit; LS-1040 from Lifeline Technologies). Human SMCs were used at passages 3-6. Adenovirus was generated using the ViraPower Adenoviral Expression System (Thermo Fisher).^67 Human SMCs were infected with virus expressing wild type or mutant human PKG1α (containing the R177Q mutation); the MOI was 3-10 and titrated to produce wild type and mutant kinase at 2-3 fold the level of endogenous PKG1 at 72 h post infection. […]
# (§2) SMC Immunofluorescence Staining. […] Images were analyzed with a Keyence BZ-X700 fluorescence microscope.
# human aortic SMCs [2] = test: H2O2 production by Amplex Red in SMCs expressing PKG1^RQ; type: cell-based; details: human aortic SMCs infected with PKG1^RQ adenovirus
# Procedure: as §1, with “3-6.” for “3-6. Adenovirus was generated using the ViraPower Adenoviral Expression System (Thermo Fisher).^67 Human SMCs were infected with virus expressing wild type or mutant human PKG1α (containing the R177Q mutation); the MOI was 3-10 and titrated to produce wild type and mutant kinase at 2-3 fold the level of endogenous PKG1 at 72 h post infection.”
# Amplex Red and NADPH Oxidase Assays. Primary murine SMCs isolated from wild type or PKG1^RQ/+ aortas, and human SMCs infected with control, wild type, or mutant PKG1^RQ virus, were seeded at 4×10^4 cells/well in 96-well plates, and H2O2 production was measured using an Amplex Red/Hydrogen Peroxide/Peroxidase Assay Kit (Thermo Fischer Scientific). […] Fluorescence was measured every min in a BioTek Synergy 2 plate reader, using 540 nm excitation and 590 nm emission wavelengths.
# human aortic SMCs [3] = test: SMC proliferation by BrdU uptake; type: cell-based
# Procedure: as §1, §2
# human aortic SMCs [4] = test: SMC apoptosis by cleaved caspase-3 staining; type: cell-based; details: human SMCs expressing PKG1^RQ
# Procedure: as §1, §2
# Prkg1^RQ/+ mice = test: Transverse aortic constriction (TAC) with N-acetylcysteine treatment; type: in vivo
# human aortic SMCs [5] = test: Western blots (VASP phosphorylation, JNK activation) and OxyBlot protein oxidation in human SMCs; type: cell-based; details: human aortic SMCs, combined with low concentrations of an NO donor
# Procedure: Western Blotting. Following anesthesia with ketamine (100 mg/kg) and xylazine (10 mg/kg) by intraperitoneal injection, mice were exsanguinated and perfused with ice-cold phosphate-buffered saline (PBS) containing protease inhibitor cocktail (Calbiochem #539131). Aortas were excised, cleaned from surrounding tissue, and snap-frozen in liquid nitrogen within 15 min of euthanasia. Frozen aortas were pulverized and sonicated (3×10 sec) in ice-cold RIPA buffer (50 mM NaCl, 50 mM Tris-HCl, pH 8, 1% NP-40, 0.1% SDS, 0.5% sodium deoxycholate) supplemented with 1 mM NaF, 1 mM β-glycerolphosphate, and protease inhibitor cocktail. Western blots were developed with primary antibodies specific for PKG1 (1:1000, Cell Signaling Technology; 3248, […] (1:1000, Cell Signaling Technology; 3114), GAPDH (1:1000, Cell Signaling Technology; 2118), β-actin (1:5000, Santa Cruz Biotechnology; 47778), and JNK-phospho-Thr^183/Tyr^185 (1:1000, Cell Signaling Technology; 9251). Blots were developed and visualized with enhanced chemiluminescence using LI-COR Odyssey (with ImageStudio, V5) or with film in the linear range of exposure (with densitometry scanning using ImageJ (V1.51). Protein carbonyl groups (aldehydes and ketones) were detected using the OxyBlot™ Protein Oxidation Detection Kit (Millipore EMD; S7150). Unprocessed scans of blots are provided in the Source Data file.
# SMC Culture and Adenovirus Infection. Murine aortic SMCs were isolated from the aortas of 8-12 week old wild type and PKG1^RQ/+ mice and were cultured in Smooth Muscle Basal Media (SmBM) containing 20% FBS, pyruvate, HEPES, L-glutamine, penicillin/streptomycin and growth factors (SmBM Bullet kit; CC-4149 from Lonza), as previously described.^69 Two independent cell isolates from wild type and PKG1^RQ mice were used at passage one. Human primary aortic SMCs were purchased from Lifeline Cell Technology (Frederick, MD, FC-0015) and cultured in VascuLife Basal Medium supplemented with recombinant epidermal growth factor, insulin, and fibroblast growth factor-b, ascorbic acid, L-glutamine, 20% FBS, gentamycin, and amphotericin (Vasculife SMC LifeFactors kit; LS-1040 from Lifeline Technologies). Human SMCs were used at passages 3-6. Adenovirus was generated using the ViraPower Adenoviral Expression System (Thermo Fisher).^67 Human SMCs were infected with virus expressing wild type or mutant human PKG1α (containing the R177Q mutation); the MOI was 3-10 and titrated to produce wild type and mutant kinase at 2-3 fold the level of endogenous PKG1 at 72 h post infection. […] For knock-down of NOX2 and NOX4, SMCs were infected with adenovirus expressing shNOX2 or shNOX4 oligomers (downstream of the U6 promoter) at an MOI of 100; H2O2 production and NADPH oxidase activity assays were performed 48 h later (as described below).
compound,measurement,setting,value
"Nc1nc2c(nc(Sc3ccc(Cl)cc3)n2[C@@H]2O[C@@H]3COP(=O)(O)O[C@H]3[C@H]2O)c(=O)[nH]1 [8-CPT-cGMP, 8-(4-chlorophenylthio)cGMP]",relaxation of pre-contracted aortic rings in response to the agent,"aortic rings; Prkg1^RQ/+ versus wild type aortas, rings pre-contracted with PGF2α",reduced in the mutant mice compared to wild type mice
CN(C)c1cccc(-c2c3c(=O)n(-c4ccccc4Cl)[nH]c3cc(=O)n2C)c1 [GKT137831],PKG1^RQ-induced increase in DNA oxidation (pro-oxidant effect of PKG1^RQ),human aortic SMCs [1],blocked
same,H2O2 production in PKG1^RQ-expressing cells,human aortic SMCs [2],reduced H2O2 production in the PKG1^RQ-expressing cells to a level found in control cells
same,growth-inhibitory effect of PKG1^RQ (SMC proliferation),"human aortic SMCs [3]; human SMCs expressing PKG1^RQ, growth factor-induced proliferation",partly prevented
same,pro-apoptotic effect of PKG1^RQ (SMC apoptosis),human aortic SMCs [4],partly prevented
"CC(=O)N[C@@H](CS)C(=O)O [NAC, N-acetylcysteine]",aortic pressure gradients after TAC surgery,Prkg1^RQ/+ mice; NAC-treated mice,did not affect
same,pre-stenotic aortic dilation after TAC,Prkg1^RQ/+ mice; NAC-treated mice,did not affect
same,survival after TAC compared to untreated mice,"Prkg1^RQ/+ mice; NAC-treated mutant mice, 14 d after TAC",trend towards improved survival; also recorded: its effect on mortality was limited
same,"TAC-induced aortic pathological changes, including media thinning","Prkg1^RQ/+ mice; Prkg1^RQ/+ mice, 1 mg/ml NAC in drinking water four weeks prior to and two weeks after TAC",largely prevented; also recorded: effective in ameliorating aortic wall injury after TAC
same,oxidative stress after TAC,"Prkg1^RQ/+ mice; Prkg1^RQ/+ mice, NAC four weeks prior to and two weeks after TAC",reduced oxidative stress
same,effect in wild type mice after TAC,"Prkg1^RQ/+ mice; wild type mice, NAC four weeks prior to and two weeks after TAC",no obvious effect
"CCCc1nn(C)c2c(=O)[nH]c(-c3cc(S(=O)(=O)N4CCN(C)CC4)ccc3OCC)nc12 [sildenafil, reference compound]",SMC proliferation,"human aortic SMCs [3]; human aortic SMCs, drug combination of sildenafil and NO donor",inhibited SMC proliferation
same,JNK activation,human aortic SMCs [5],induced JNK activation
same,VASP phosphorylation,human aortic SMCs [5],increased VASP phosphorylation
prostaglandin F2α,"concentration required to pre-contract aortic rings, mutant mice","aortic rings; eight month-old Prkg1^RQ/+ mice, n=5 vessels",2.27 ± 0.86 µM
same,"concentration required to pre-contract aortic rings, wild type mice","aortic rings; eight month-old wild type mice, n=5 vessels",2.15 ± 0.17 µM
